Read-outs that look alike come from different tables or passages of the source. Marks after values point to notes of the source that are not given here.
Experiments:
[1] = Moisture content by coulometric Karl Fischer titration (KF); assay type: physicochemical
Method: (§1) Each salt was analyzed by coulometric titration using an EM Scientific Aquastar C3000 titrator to determine water content. […] Each salt was analyzed using a Perkin Elmer TGA 7 Thermal Gravimetric Analyzer (TGA). […] Moisture sorption isotherms for each salt were generated using the VTI SGA-100 Symmetric Vapor Sorption Analyzer. Samples were run as received without pre-analysis drying. Equilibrium criteria were the lesser of 0.01 wt % change in 5 minutes or 180 minutes at each relative humidity (RH) step. […] Analysis was repeated for each sample in consecutive analyses (sample was not removed from analyzer). Sample sizes ranged from 18 mg to 35 mg.

[2] = Thermal gravimetric analysis (TGA) weight loss; assay type: physicochemical; conditions: heated 25° C. to 325° C. at 10° C./min
Method: The sixteen salts of transnorsertraline of Example 6.14 were analyzed for moisture content and hygroscopicity. Each salt was analyzed by coulometric titration using an EM Scientific Aquastar C3000 titrator to determine water content. Sample size ranged from 18 mg to 134 mg. Each salt was analyzed using a Perkin Elmer TGA 7 Thermal Gravimetric Analyzer (TGA). […] Moisture sorption isotherms for each salt were generated using the VTI SGA-100 Symmetric Vapor Sorption Analyzer. Samples were run as received without pre-analysis drying. Equilibrium criteria were the lesser of 0.01 wt % change in 5 minutes or 180 minutes at each relative humidity (RH) step. Temperature was fixed at 25° C. and the relative humidity steps (25 to 95% to 25%) were in 5% increments. Analysis was repeated for each sample in consecutive analyses (sample was not removed from analyzer). Sample sizes ranged from 18 mg to 35 mg.

[3] = Solubility of transnorsertraline salts in de-ionized water (HPLC); conditions: for Solubility in Freebase Equivalents mgA/mL: de-ionized water, ambient, shaken up to nine days until equilibrium; for pH: saturated solution in de-ionized water
Method: For each salt, saturated solutions with excess solids in deionized water were prepared in 20 mL clear glass scintillation vials with screw caps. All samples were shaken at 300 rpm at ambient conditions for up to nine days until equilibrium was achieved. Solubility was determined using a HPLC method (Table 5).

[4] = Solubility of transnorsertraline salts in aqueous buffer systems (SGF, acetate buffer pH 4.5, SIF; HPLC); assay type: physicochemical
Method: Saturated solutions with excess solids were prepared in 20 mL clear glass scintillation vials. Simulated gastric fluid (pH 1.0, ˜0.1N HCl, 0.03M NaCl, no enzymes), simulated intestinal fluid (pH 6.8, 0.05M KH2PO4, ˜0.02N NaOH, no enzymes), and acetate buffer (pH 4.5, 0.02M sodium acetate, 0.03M acetic acid) were prepared in accordance with USP28 (USP28 Test Solutions p2855, Volumetric Solutions p2863). […] Solubility was determined using a HPLC method.

[5] = VTI moisture sorption isotherm (hygroscopicity); assay type: physicochemical; conditions: for VTI Adsorp. (% wt gain 25 to 95% RH) / VTI Desorp. (% wt loss 95 to 25% RH): 25° C.
Method: as §1

[6] = Open dish excipient compatibility study Set 1a/1b (Active 1 with single excipients), 40° C./75% RH, 3 weeks, % impurities; assay type: physicochemical
Method: A Zorban SB-CN […], 25 cm×4.6 mm analytical column using a 0.05% trifluoroacetic acid in a 80:20 water:acetonitrile solution (Mobile Phase A) followed by a 0.05% trifluoroacetic acid in a 15:85 water:acetonitrile solution (Mobile Phase B) was used. Column temperature: 30° C. The flow rate: 1.0 mL/min. Injection volume: 50 μL. Wavelength: 220 nm. Minimum run time: 50 min (15 min delay). Mobile Phase gradient: […]
Transnorsertraline HCl (1) (“Active 1”) was mixed with each excipient present in 1 mg capsule strength respectively. The samples contained two different ratios (1:1 and as in the 1 mg capsules) of active and excipients.

[7] = 0.05M Acetate Buffer (pH 4.5), ambient, up to nine days
[8] = Simulated Gastric Fluid (no enzymes), ambient, up to nine days
[9] = Simulated Intestinal Fluid (pH 6.8, no enzymes), ambient, up to nine days
[10] = saturated solution in 0.05M Acetate Buffer (pH 4.5)
[11] = saturated solution in Simulated Gastric Fluid
[12] = saturated solution in Simulated Intestinal Fluid
[13] = repeated consecutive analysis (second line)
[14] = Set 1a, active:excipient 1:1, open dish 40° C./75% RH
[15] = Set 1b, active:excipient ratio as in 1 mg capsules, open dish 40° C./75% RH
[16] = first analysis, listed as L-malate lot 1
[17] = first analysis, listed as L-malate lot 2
[18] = first analysis, listed as L-malate lot 3
[19] = first analysis, listed as Acetate lot 1
[20] = first analysis, listed as Acetate lot 2
[21] = first analysis, listed as Acetate lot 3
[22] = repeated consecutive analysis (second line), listed as Acetate lot 1
[23] = repeated consecutive analysis (second line), listed as Acetate lot 2
[24] = repeated consecutive analysis (second line), listed as Acetate lot 3

Molecule	Initial KF (% H2O) [1]	TGA (% wt loss) [2]	pH [3]	pH [4, 10]	pH [4, 11]	pH [4, 12]	VTI Adsorp. (% wt gain 25 to 95% RH) ([5]; first analysis)	VTI Desorp. (% wt loss 95 to 25% RH) ([5]; first analysis)	VTI Adsorp. (% wt gain 25 to 95% RH) [5, 13]	VTI Desorp. (% wt loss 95 to 25% RH) [5, 13]	also measured
Maleate	0.06 % H2O	0.02 % wt loss	3.98	4.52	1.25	6.47	0.10 % wt gain	0.09 % wt loss	0.08 % wt gain	0.08 % wt loss	Solubility in Freebase Equivalents mgA/mL [3]: 1.88 mgA/mL; Solubility in Freebase Equivalents mgA/mL [4, 7]: 1.23 mgA/mL; Solubility in Freebase Equivalents mgA/mL [4, 8]: 0.08 mgA/mL; Solubility in Freebase Equivalents mgA/mL [4, 9]: 0.28 mgA/mL
Fumarate	0.40 % H2O	0.81 % wt loss	5.30	4.60	1.25	6.63	0.18 % wt gain	0.17 % wt loss	0.17 % wt gain	0.16 % wt loss	Solubility in Freebase Equivalents mgA/mL [3]: 0.52 mgA/mL; Solubility in Freebase Equivalents mgA/mL [4, 7]: 0.69 mgA/mL; Solubility in Freebase Equivalents mgA/mL [4, 8]: <0.01 mgA/mL; Solubility in Freebase Equivalents mgA/mL [4, 9]: 0.30 mgA/mL
L-tartrate	0.62 % H2O		2.63	4.58	1.24	6.73	3.52 % wt gain	1.36 % wt loss	1.37 % wt gain		
Succinate	1.03 % H2O		3.89	4.50	1.27	6.46	3.25 % wt gain	3.17 % wt loss			
S-mandelate	0.32 % H2O						3.24 % wt gain	3.95 % wt loss	3.79 % wt gain	3.02 % wt loss	
N[C@@H]1CC[C@@H](c2ccc(Cl)c(Cl)c2)c2ccccc21.O=C1CC[C@@H](C(=O)O)N1	0.10 % H2O						17.28 % wt gain				
Transnorsertraline HCl [active 1]											% Active [6, 14]: 99.68%; % Impurities, peak RRT 0.764 [6, 14]: 0.05%; % Impurities, peak RRT 0.862, Synthetic Impurity 1 [6, 14]: 0.04%; % Impurities, peak RRT 0.885, Synthetic Impurity 2 [6, 14]: 0.05%; % Impurities, peak RRT 1.07, cis-diastereomer [6, 14]: 0.12%; % Impurities, peak RRT 1.386 [6, 14]: 0.07%; % Total Impurities [6, 14]: 0.33%; impurities formed due to the presence of excipients ([6]; Set 1a, ratio of active to excipient 1:1, 40° C./75% RH): no appreciable impurities formed; % Active [6, 15]: 99.68%; % Impurities, peak RRT 0.764 [6, 15]: 0.05%; % Impurities, peak RRT 0.862, Synthetic Impurity 1 [6, 15]: 0.04%; % Impurities, peak RRT 0.885, Synthetic Impurity 2 [6, 15]: 0.05%; % Impurities, peak RRT 1.07, cis-diastereomer [6, 15]: 0.12%; % Impurities, peak RRT 1.386 [6, 15]: 0.07%; % Total Impurities [6, 15]: 0.33%
Phosphate	0.16 % H2O		3.27	4.55	1.24	6.49	3.00 % wt gain	1.37 % wt loss	2.14 % wt gain	1.20 % wt loss	Solubility in Freebase Equivalents mgA/mL ([4]; pH 1): <0.01 mgA/mL; Solubility in Freebase Equivalents mgA/mL ([4]; pH 4.5): 2.63 mgA/mL; Solubility in Freebase Equivalents mgA/mL ([4]; pH 6.8): 0.27 mgA/mL
Transnorsertraline L-Malate	0.05 % H2O	0.07 % wt loss	4.15	4.42	1.15	6.68	0.08 % wt gain	0.08 % wt loss	0.06 % wt gain	0.06 % wt loss	Initial KF (% H2O) ([1]; listed as L-malate lot 1): 0.05 % H2O; Initial KF (% H2O) ([1]; listed as L-malate lot 2): 0.08 % H2O; Initial KF (% H2O) ([1]; listed as L-malate lot 3): 0.04 % H2O; TGA (% wt loss) ([2]; listed as L-malate lot 1): 0.08 % wt loss; Solubility in Freebase Equivalents mgA/mL ([4]; pH 1): 0.08^b mgA/mL; Solubility in Freebase Equivalents mgA/mL ([4]; pH 4.5): 1.59^b mgA/mL; Solubility in Freebase Equivalents mgA/mL ([4]; pH 6.8): 0.38 mgA/mL; VTI Adsorp. (% wt gain 25 to 95% RH) [5, 16]: 0.08 % wt gain; VTI Desorp. (% wt loss 95 to 25% RH) [5, 16]: 0.08 % wt loss; VTI Adsorp. (% wt gain 25 to 95% RH) [5, 17]: 0.06 % wt gain; VTI Desorp. (% wt loss 95 to 25% RH) [5, 17]: 0.07 % wt loss; VTI Adsorp. (% wt gain 25 to 95% RH) [5, 18]: 5.31 % wt gain; VTI Desorp. (% wt loss 95 to 25% RH) [5, 18]: 5.23 % wt loss; VTI Adsorp. (% wt gain 25 to 95% RH) ([5]; repeated consecutive analysis (second line), listed as L-malate lot 1): 0.06 % wt gain; VTI Adsorp. (% wt gain 25 to 95% RH) ([5]; repeated consecutive analysis (second line), listed as L-malate lot 2): 0.07 % wt gain; moisture adsorbed more than other L-malate lots ([5]; from 25 to 95% relative humidity): > 5%
O=S(=O)(O)O [Sulfate]	3.34 % H2O	4.20 % wt loss					10.19 % wt gain	9.51 % wt loss	7.25 % wt gain		
Benzoate	0.27 % H2O	0.05 % wt loss					0.10 % wt gain	0.10 % wt loss	0.08 % wt gain	0.07 % wt loss	
Transnorsertraline Acetate	0.03 % H2O	0.53 % wt loss	6.31	4.79	1.26	6.63	0.07 % wt gain	0.08 % wt loss	0.08 % wt gain	0.09 % wt loss	Initial KF (% H2O) ([1]; listed as Acetate lot 1): 0.03 % H2O; Initial KF (% H2O) ([1]; listed as Acetate lot 2): 0.07 % H2O; Initial KF (% H2O) ([1]; listed as Acetate lot 3): 0.05 % H2O; TGA (% wt loss) ([2]; listed as Acetate lot 1): 0.43 % wt loss; Solubility in Freebase Equivalents mgA/mL ([4]; pH 1): 0.07 mgA/mL; Solubility in Freebase Equivalents mgA/mL ([4]; pH 4.5): 3.12 mgA/mL; Solubility in Freebase Equivalents mgA/mL ([4]; pH 6.8): 0.25 mgA/mL; VTI Adsorp. (% wt gain 25 to 95% RH) [5, 19]: 0.07 % wt gain; VTI Desorp. (% wt loss 95 to 25% RH) [5, 19]: 0.08 % wt loss; VTI Adsorp. (% wt gain 25 to 95% RH) [5, 20]: 0.22 % wt gain; VTI Desorp. (% wt loss 95 to 25% RH) [5, 20]: 0.23 % wt loss; VTI Adsorp. (% wt gain 25 to 95% RH) [5, 21]: 0.33 % wt gain; VTI Desorp. (% wt loss 95 to 25% RH) [5, 21]: 0.38 % wt loss; VTI Adsorp. (% wt gain 25 to 95% RH) [5, 22]: 0.08 % wt gain; VTI Desorp. (% wt loss 95 to 25% RH) [5, 22]: 0.09 % wt loss; VTI Adsorp. (% wt gain 25 to 95% RH) [5, 23]: 0.23 % wt gain; VTI Desorp. (% wt loss 95 to 25% RH) [5, 23]: 0.23 % wt loss; VTI Adsorp. (% wt gain 25 to 95% RH) [5, 24]: 0.35 % wt gain; VTI Desorp. (% wt loss 95 to 25% RH) [5, 24]: 0.35 % wt loss
Citrate	0.31 % H2O						2.59 % wt gain	3.96 % wt loss	3.24 % wt gain	3.61 % wt loss	

From patent US8957114B2, “Formulations, salts and polymorphs of transnorsertraline and uses thereof” (Sunovion Pharmaceuticals Inc., priority 2009, dated 2015)
